{
  "source": "paper PMC2806265",
  "about": "“Divergence of allosteric effects of rapacuronium on binding and function of muscarinic receptors” (BMC Pharmacology, 2009)",
  "target": "T1, M5 muscarinic receptor (Homo sapiens, UniProt P08912)",
  "T1 sequence (P08912 1-532)": "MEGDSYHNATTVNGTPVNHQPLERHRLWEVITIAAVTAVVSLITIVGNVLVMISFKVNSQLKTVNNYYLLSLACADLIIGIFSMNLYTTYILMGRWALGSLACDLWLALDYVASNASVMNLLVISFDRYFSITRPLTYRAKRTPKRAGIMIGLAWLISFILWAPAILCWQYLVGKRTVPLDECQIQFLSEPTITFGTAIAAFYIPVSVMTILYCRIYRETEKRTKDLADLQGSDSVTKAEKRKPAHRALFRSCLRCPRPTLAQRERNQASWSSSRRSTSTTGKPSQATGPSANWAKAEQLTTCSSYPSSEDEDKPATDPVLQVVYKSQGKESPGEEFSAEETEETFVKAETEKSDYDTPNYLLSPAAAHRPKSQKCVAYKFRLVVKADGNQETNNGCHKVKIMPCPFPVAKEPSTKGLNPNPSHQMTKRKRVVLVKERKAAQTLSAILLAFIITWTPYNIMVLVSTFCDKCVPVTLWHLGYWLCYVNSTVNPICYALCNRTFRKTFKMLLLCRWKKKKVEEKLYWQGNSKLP",
  "experiment": "Effect of rapacuronium on 1 nM [3H]NMS binding",
  "parameters": "host or cells: CHO cells, stably transfected; membranes",
  "from_the_text": "Cooperativity factor greater than 1 denotes negative cooperativity and less than 1 positive cooperativity. Due to its log-normal error distribution factors of cooperativity are expressed as negative logarithms (pα) through the manuscript so negative values denotes negative cooperativity and positive value denotes positive cooperativity.",
  "data": [
    {"compound": "C=CC[N+]1([C@H]2C[C@H]3[C@@H]4CC[C@H]5C[C@H](OC(C)=O)[C@@H](N6CCCCC6)C[C@]5(C)[C@H]4CC[C@]3(C)[C@H]2OC(=O)CC)CCCCC1", "note": "[rapacuronium]", "values": [
      {"measurement": "decrease in affinity of [^3H]NMS (cooperativity)", "setting": "M5", "value": 35, "unit": "fold"},
      {"measurement": "pα, cooperativity with [^3H]NMS", "setting": "M5, negative value = negative cooperativity", "value": "-1.54 ± 0.05"},
      {"measurement": "Kd", "setting": "read-out: pKA of rapacuronium (converted)", "value": 10.7, "unit": "µM"}
    ]}
  ]
}
